The NIST ThermoML archive (doi:10.1021/je301347v)

Assay: xn = mol fraction of the nth substance listed
Conditions: 101 kPa, Liquid, Voltage change across transformer (no electrode)

CCCC[n+]1ccc(C)cc1.F[B-](F)(F)F [1-butyl-4-methylpyridinium tetrafluoroborate] + CO
electrical conductivity [S/m]
Conditions	293.15 K	303.15 K	313.15 K	323.15 K
x1 = 0.0426	2.81	3.25	3.55	4.09
x1 = 0.0499	2.99	3.46	3.93	4.37
x1 = 0.0584	3.18	3.71	4.17	4.65
x1 = 0.0716	3.38	3.99	4.56	5.02
x1 = 0.0898	3.58	4.25	4.82	5.4
x1 = 0.1093	3.72	4.43	5.08	5.67
x1 = 0.1256	3.76	4.52	5.2	5.82
x1 = 0.1425	3.78	4.56	5.27	5.92
x1 = 0.2197	3.47	4.38	5.15	5.85
x1 = 0.2475	3.31	4.22	5	5.7
x1 = 0.305	3.13	3.84	4.61	5.27
x1 = 0.3465	2.81	3.53	4.27	4.9
x1 = 0.4593	2.18	2.68	3.3	3.83
x1 = 0.5657	1.42	1.93	2.47	2.85
x1 = 0.6744	0.993	1.28	1.71	1.99
x1 = 0.7908	0.565	0.761	1.12	1.29
x1 = 0.8788	0.341	0.487	0.78	0.925
x1 = 1	0.132	0.254	0.439	0.687

CCCC[n+]1ccccc1.F[B-](F)(F)F [1-butylpyridinium tetrafluoroborate] + CCO
electrical conductivity [S/m]
Conditions	303.15 K	313.15 K	323.15 K
x1 = 0.0353	0.785	1.02	1.32
x1 = 0.0417	0.863	1.18	1.38
x1 = 0.0455	1.06	1.27	1.54
x1 = 0.0461	1.04	1.29	1.54
x1 = 0.0551	1.15	1.48	1.72
x1 = 0.0564	1.24	1.5	1.83
x1 = 0.0634	1.44	1.64	2.22
x1 = 0.0735	1.43	1.82	2.12
x1 = 0.084	1.56	1.98	2.31
x1 = 0.1033	1.68	2.24	2.56
x1 = 0.1165	1.8	2.39	2.7
x1 = 0.1291	1.86	2.51	2.92
x1 = 0.1597	2.16	2.74	3.01
x1 = 0.1656	2.28	2.77	3.23
x1 = 0.2093	2.38	2.95	3.41
x1 = 0.2237	2.44	2.96	3.43
x1 = 0.2751	2.46	2.97	3.45
x1 = 0.3929	2.17	2.7	3.2
x1 = 0.4464	1.96	2.5	2.86
x1 = 0.5095	1.66	2.2	2.56
x1 = 0.617	1.2	1.77	2.17
x1 = 0.7008	0.884	1.43	1.71
x1 = 0.8158	0.566	1.03	1.28
x1 = 0.8973	0.436	0.821	1.04
x1 = 1	0.321	0.519	0.785

CCCC[n+]1cccc(C)c1.F[B-](F)(F)F [1-butyl-3-methylpyridinium tetrafluoroborate] + CO
electrical conductivity [S/m]
Conditions	293.15 K	303.15 K	313.15 K	323.15 K
x1 = 0.0337	2.29	2.71	3.11	3.5
x1 = 0.0438	2.45	2.89	3.34	3.8
x1 = 0.0479	2.66	3.12	3.6	4.09
x1 = 0.0567	2.9	3.41	3.96	4.53
x1 = 0.0699	3.17	3.85	4.49	5.1
x1 = 0.1142	3.33	3.98	4.66	5.38
x1 = 0.1504	3.37	4.06	4.74	5.5
x1 = 0.1734	3.31	4.01	4.74	5.52
x1 = 0.2236	3.11	3.8	4.55	5.34
x1 = 0.2696	2.78	3.44	4.15	4.89
x1 = 0.3345	2.43	3.08	3.77	4.49
x1 = 0.378	2.19	2.8	3.45	4.11
x1 = 0.4258	1.76	2.31	2.95	3.59
x1 = 0.5198	1.3	1.82	2.3	2.87
x1 = 0.61	0.944	1.32	1.78	2.27
x1 = 0.729	0.472	0.686	1.04	1.58
x1 = 0.8344	0.28	0.413	0.672	1.05
x1 = 0.9177	0.191	0.311	0.523	0.817
x1 = 1	0.155	0.281	0.461	0.704

CCCC[n+]1ccc(C)cc1.F[B-](F)(F)F [1-butyl-4-methylpyridinium tetrafluoroborate] + CCO
electrical conductivity [S/m]
Conditions	293.15 K	303.15 K	313.15 K	323.15 K
x1 = 0.0448	0.696	0.877	1.01	1.1
x1 = 0.0521	0.791	1.01	1.22	1.3
x1 = 0.0608	0.893	1.15	1.42	1.55
x1 = 0.0701	0.991	1.28	1.58	1.76
x1 = 0.0843	1.15	1.47	1.82	1.95
x1 = 0.1046	1.29	1.65	2.08	2.41
x1 = 0.1232	1.39	1.8	2.26	2.64
x1 = 0.1347	1.44	1.86	2.33	2.76
x1 = 0.1551	1.5	1.95	2.47	2.92
x1 = 0.1602	1.51	1.97	2.49	2.96
x1 = 0.2251	1.59	2.09	2.67	3.22
x1 = 0.247	1.59	2.09	2.68	3.26
x1 = 0.3371	1.52	2.02	2.61	3.22
x1 = 0.3512	1.5	2	2.59	3.22
x1 = 0.3799	1.45	1.95	2.52	3.17
x1 = 0.3856	1.44	1.94	2.52	3.16
x1 = 0.4126	1.4	1.88	2.46	3.1
x1 = 0.5649	1.1	1.37	2.01	2.63
x1 = 0.6798	0.851	1.02	1.61	2.16
x1 = 0.7941	0.601	0.696	1.2	1.68
x1 = 0.9258	0.305	0.38	0.717	1.06
x1 = 0.9963	0.154	0.242	0.459	0.74
x1 = 1	0.132	0.254	0.439	0.687

CCCC[n+]1cccc(C)c1.F[B-](F)(F)F [1-butyl-3-methylpyridinium tetrafluoroborate] + CCO
electrical conductivity [S/m]
Conditions	293.15 K	303.15 K	313.15 K	323.15 K
x1 = 0.0613	0.787	1.02	1.26	1.53
x1 = 0.0737	0.888	1.14	1.42	1.72
x1 = 0.0915	1.02	1.31	1.63	1.96
x1 = 0.1113	1.14	1.48	1.84	2.19
x1 = 0.1366	1.24	1.63	2.04	2.43
x1 = 0.167	1.4	1.81	2.22	2.68
x1 = 0.1985	1.47	1.92	2.36	2.81
x1 = 0.2393	1.52	1.97	2.4	2.89
x1 = 0.2811	1.5	1.96	2.4	2.89
x1 = 0.3174	1.41	1.85	2.31	2.85
x1 = 0.3652	1.32	1.76	2.24	2.76
x1 = 0.4385	1.19	1.61	2.11	2.54
x1 = 0.4652	1.09	1.49	1.92	2.45
x1 = 0.5281	0.934	1.28	1.68	2.21
x1 = 0.5747	0.823	1.17	1.56	2.04
x1 = 0.6938	0.51	0.77	1.15	1.63
x1 = 0.7799	0.37	0.56	0.891	1.33
x1 = 0.9102	0.215	0.36	0.59	0.903
x1 = 1	0.155	0.281	0.461	0.704

CCCC[n+]1ccccc1.F[B-](F)(F)F [1-butylpyridinium tetrafluoroborate] + CO
electrical conductivity [S/m]
Conditions	293.15 K	303.15 K	313.15 K	323.15 K
x1 = 0.0432	2.87	3.37	3.91	4.28
x1 = 0.0485	2.98	3.51	3.95	4.62
x1 = 0.0698	3.21	3.82	4.45	5.11
x1 = 0.0901	3.45	4.17	4.89	5.46
x1 = 0.1091	3.71	4.39	5.14	5.81
x1 = 0.1252	3.75	4.54	5.35	6.06
x1 = 0.142	3.82	4.61	5.45	6.12
x1 = 0.1629	3.79	4.59	5.49	6.19
x1 = 0.1773	3.78	4.57	5.38	6.12
x1 = 0.2273	3.47	4.3	5.16	6.01
x1 = 0.2401	3.43	4.26	5.13	5.94
x1 = 0.2966	3.14	3.99	4.81	5.59
x1 = 0.3803	2.37	3.05	3.72	4.51
x1 = 0.4277	2.07	2.71	3.39	4.08
x1 = 0.4808	1.75	2.29	2.89	3.49
x1 = 0.5618	1.2	1.72	2.22	2.77
x1 = 0.6317	0.894	1.35	1.81	2.35
x1 = 0.698	0.74	1.07	1.45	1.89
x1 = 0.8355	0.406	0.647	0.966	1.39
x1 = 0.879	0.321	0.514	0.776	1.12
x1 = 0.9279	0.27	0.446	0.684	0.976
x1 = 1	0.181	0.321	0.519	0.785
